Measurements taken from patent publication US12377084B2, “ERAP1 modulators” (GREY WOLF THERAPEUTICS LIMITED, priority 2019, dated 2025).
Counter-ions that a name gives are not always drawn.

Target: T1, Purified ERAP1(37-941)-10 His (ERAP1) (Homo sapiens, UniProt Q9NZ08)
T1 construct: Purified ERAP1(37-941)-10 His (ERAP1); 10xHis (C)
Assay: ERAP1 mediated hydrolysis of an amide substrate in a biochemical system (10 mer inhibition assay)
Settings: 10-mer substrate, incubated at 23° C. for 1 h; excitation 279 nm, emission 355 nm; read-out: IC50 vs Decapeptide WRVYEKC(Dnp)ALK-acid (where Dnp is Dinitrophenyl maleimide) (10-mer)
Source text: This peptide has minimal fluorescence as the N-terminal tryptophan residue's fluorescence is quenched by the dinitrophenol (DNP) residue within the peptide. However, as ERAP1 hydrolyses the N-terminal amide bond and tryptophan is released this internal quenching is lost and the reaction is monitored by the increase in tryptophan fluorescence over the course of the assay. For the purposes of this application this assay is referred to as the “10 mer inhibition assay” and compound potencies are calculated and expressed as IC50 as would be familiar to a person skilled in the art.
Biological Assay 1: ERAP1 Mediated Hydrolysis of an Amide Substrate Measured in a Biochemical System
1× Assay buffer (AB): 25 mM Bis-tris propane, 0.05% w/v
Hydroxypropylmethylcellulose pH 7.75 made with Optima grade water
Decapeptide WRVYEKC(Dnp)ALK-acid (where Dnp is Dinitrophenyl maleimide) (10-mer)
12.5 μL ERAP1 enzyme in 1×AB was combined with 250 nL test compound in DMSO. 12.5 μL of either 240 μM L-AMC in 1×AB or 100 μM 10-mer in 1×AB was added to the reaction and incubated at 23° C. for 1 h. For detection, plates were read at excitation 365 nm and emission 442 nm (L-AMC) or excitation 279 nm and emission 355 nm (10-mer). Compound IC50 was determined using a 4-parameter equation.

T1 sequence (Q9NZ08 37-941): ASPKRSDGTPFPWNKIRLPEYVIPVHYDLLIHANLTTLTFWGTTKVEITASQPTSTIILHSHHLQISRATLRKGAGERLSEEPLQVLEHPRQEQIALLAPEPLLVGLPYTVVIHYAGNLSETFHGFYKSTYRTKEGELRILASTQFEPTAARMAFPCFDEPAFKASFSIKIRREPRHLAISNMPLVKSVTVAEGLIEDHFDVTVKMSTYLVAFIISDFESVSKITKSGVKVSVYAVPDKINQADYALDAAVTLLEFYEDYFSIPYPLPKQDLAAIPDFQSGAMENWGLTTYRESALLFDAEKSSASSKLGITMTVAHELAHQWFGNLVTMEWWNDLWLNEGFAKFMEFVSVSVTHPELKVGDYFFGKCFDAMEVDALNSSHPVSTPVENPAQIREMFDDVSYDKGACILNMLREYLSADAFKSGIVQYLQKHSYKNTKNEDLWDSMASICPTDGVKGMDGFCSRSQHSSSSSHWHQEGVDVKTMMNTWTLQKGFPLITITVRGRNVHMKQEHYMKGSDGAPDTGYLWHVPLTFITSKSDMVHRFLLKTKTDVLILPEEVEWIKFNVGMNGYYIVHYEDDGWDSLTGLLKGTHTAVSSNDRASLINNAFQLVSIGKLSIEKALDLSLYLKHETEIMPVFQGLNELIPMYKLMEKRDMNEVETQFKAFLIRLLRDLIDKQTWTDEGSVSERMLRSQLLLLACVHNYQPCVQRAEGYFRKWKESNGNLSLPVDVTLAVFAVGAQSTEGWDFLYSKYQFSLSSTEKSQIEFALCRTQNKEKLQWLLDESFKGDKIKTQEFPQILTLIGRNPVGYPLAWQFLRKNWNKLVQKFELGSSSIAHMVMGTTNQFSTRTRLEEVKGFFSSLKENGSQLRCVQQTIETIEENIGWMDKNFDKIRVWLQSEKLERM

IC50 [nM]	Structure (SMILES)
< 100	O=C(O)c1ccc(C2CC2)c(S(=O)(=O)Nc2cc(C(F)(F)F)ccc2C2CCCCN2)c1 (single isomer, unassigned; enantiomer 1) [Example 29, 4-cyclopropyl-3-(N-(2-(piperidin-2-yl)-5-(trifluoromethyl)phenyl)sulfamoyl)benzoic Acid Enantiomer 1]
< 100	CS(=O)(=O)c1ccc(C2CCCCN2)c(NS(=O)(=O)c2cc(C(=O)O)ccc2C2CC2)c1 (stereo not shown) [Example 20, 4-cyclopropyl-3-(N-(5-(methylsulfonyl)-2-(piperidin-2-yl)phenyl)sulfamoyl)benzoic Acid]
< 100	N#Cc1cc(NS(=O)(=O)c2cc(C(=O)O)ccc2C2CC2)c(C2CCCCN2)cc1Cl (stereo not shown) [Example 22, 3-(N-(4-chloro-5-cyano-2-(piperidin-2-yl)phenyl)sulfamoyl)-4-cyclopropylbenzoic Acid]
< 100	CCc1ccc(C(=O)O)cc1S(=O)(=O)Nc1cc(C(F)(F)F)ccc1C1CCCNC1 (stereo not shown) [Example 3, 4-ethyl-3-(N-(2-(piperidin-3-yl)-5-(trifluoromethyl)phenyl)sulfamoyl)benzoic Acid Hydrochloride]
< 100	O=C(O)c1ccc(C2CC2)c(S(=O)(=O)Nc2cc(C(F)(F)F)c(Cl)cc2C2CCCCN2)c1 (stereo not shown) [Example 26, 3-(N-(4-chloro-2-(piperidin-2-yl)-5-(trifluoromethyl)phenyl)sulfamoyl)-4-cyclopropylbenzoic Acid]
< 100	O=C(O)c1ccc(C2CC2)c(S(=O)(=O)Nc2cc(C(F)(F)F)ccc2C2CCCCN2)c1 (single isomer, unassigned; enantiomer 2) [Example 30, 4-cyclopropyl-3-(N-(2-(piperidin-2-yl)-5-(trifluoromethyl)phenyl)sulfamoyl)benzoic Acid Enantiomer 2]
< 100	CS(=O)(=O)c1ccc(C2CCCCC2)c(NS(=O)(=O)c2cc(C(=O)O)ccc2C2CC2)c1 [Example 17, 3-(N-(2-cyclohexyl-5-(methylsulfonyl)phenyl)sulfamoyl)-4-cyclopropylbenzoic Acid]
< 100	O=C(O)c1ccc(C2CC2)c(S(=O)(=O)Nc2cc(-c3ccns3)ccc2C2CCCCN2)c1 (stereo not shown) [Example 28, 4-cyclopropyl-3-(N-(5-(isothiazol-5-yl)-2-(piperidin-2-yl)phenyl)sulfamoyl)benzoic Acid]
< 100	O=C(O)c1ccc(C2CC2)c(S(=O)(=O)Nc2cc(C(F)(F)F)ccc2C2CCCCN2)c1 (stereo not shown) [Example 16, 4-cyclopropyl-3-(N-(2-(piperidin-2-yl)-5-(trifluoromethyl)phenyl)sulfamoyl)benzoic Acid]
< 100	CCc1ccc(C(=O)O)cc1S(=O)(=O)Nc1cc(-n2cnnn2)ccc1C1CCCCC1 [Example 4, 3-(N-(2-cyclohexyl-5-(tetrazol-1-yl)phenyl)sulfamoyl)-4-ethylbenzoic Acid]
< 100	CCc1ccc(C(=O)O)cc1S(=O)(=O)Nc1cc(C#N)ccc1C1CCCCC1 [Example 13, 3-(N-(5-cyano-2-cyclohexylphenyl)sulfamoyl)-4-ethylbenzoic Acid]
< 100	CS(=O)(=O)c1cc(NS(=O)(=O)c2cc(C(=O)O)ccc2C2CC2)c(C2CCCCN2)cc1Cl (stereo not shown) [Example 27, 3-(N-(4-chloro-5-(methylsulfonyl)-2-(piperidin-2-yl)phenyl)sulfamoyl)-4-cyclopropylbenzoic Acid Hydrochloride]
< 100	CCc1ccc(C(=O)O)cc1S(=O)(=O)Nc1cc(C(F)(F)F)ccc1C1CCNC1 (stereo not shown) [Example 7, 4-ethyl-3-(N-(2-(pyrrolidin-3-yl)-5-(trifluoromethyl)phenyl)sulfamoyl)benzoic Acid]
< 100	O=C(O)c1cc(F)c(C2CC2)c(S(=O)(=O)Nc2cc(C(F)(F)F)ccc2C2CCCCN2)c1 (stereo not shown) [Example 31, 4-cyclopropyl-3-fluoro-5-(N-(2-(piperidin-2-yl)-5-(trifluoromethyl)phenyl)sulfamoyl)benzoic Acid]
< 100	CCc1ccc(C(=O)O)cc1S(=O)(=O)Nc1cc(C(F)(F)F)ccc1C1CCCCN1C (stereo not shown) [Example 10, 4-ethyl-3-(N-(2-(1-methylpiperidin-2-yl)-5-(trifluoromethyl)phenyl)sulfamoyl)benzoic Acid]
< 100	N#Cc1cc(NS(=O)(=O)c2cc(C(=O)O)ccc2C2CC2)c(C2CCCCN2)cc1F (stereo not shown) [Example 21, 3-(N-(5-cyano-4-fluoro-2-(piperidin-2-yl)phenyl)sulfamoyl)-4-cyclopropylbenzoic Acid]

IC50 [nM]	Structure (SMILES)
> 500	COc1ccc(C(=O)O)cc1S(=O)(=O)Nc1cc(C(F)(F)F)ccc1C1CCCN(C)C1 (stereo not shown) [Example 1, 4-methoxy-3-(N-(2-(1-methylpiperidin-3-yl)-5-(trifluoromethyl)phenyl)sulfamoyl)benzoic Acid]
< 100	O=C(O)c1ccc(C2CC2)c(S(=O)(=O)Nc2cc(-n3cnnn3)ccc2C2CCCCN2)c1 (stereo not shown) [Example 23, 4-cyclopropyl-3-(N-(2-(piperidin-2-yl)-5-(tetrazol-1-yl)phenyl)sulfamoyl)benzoic Acid]
< 100	CCc1ccc(C(=O)O)cc1S(=O)(=O)Nc1cc(S(C)(=O)=O)ccc1C1CCCCN1 (stereo not shown) [Example 15, 4-ethyl-3-(N-(5-(methylsulfonyl)-2-(piperidin-2-yl)phenyl)sulfamoyl)benzoic Acid]
100 to 500	COc1ccc(C(=O)O)cc1S(=O)(=O)Nc1cc(C(F)(F)F)ccc1C1CCCNC1 (stereo not shown) [Example 2, 4-methoxy-3-(N-(2-(piperidin-3-yl)-5-(trifluoromethyl)phenyl)sulfamoyl)benzoic Acid Hydrochloride]
100 to 500	CCc1ccc(C(=O)O)cc1S(=O)(=O)Nc1cc(C(F)(F)F)ccc1C1CCCN1 (stereo not shown) [Example 5, 4-ethyl-3-(N-(2-(pyrrolidin-2-yl)-5-(trifluoromethyl)phenyl)sulfamoyl)benzoic Acid]
< 100	O=C(O)c1ccc(C2CC2)c(S(=O)(=O)Nc2cc(C(F)(F)F)c(F)cc2C2CCCCN2)c1 (stereo not shown) [Example 24, 4-cyclopropyl-3-(N-(4-fluoro-2-(piperidin-2-yl)-5-(trifluoromethyl)phenyl)sulfamoyl)benzoic Acid]
< 100	CCc1ccc(C(=O)O)cc1S(=O)(=O)Nc1cc(S(C)(=O)=O)ccc1C1CCCCC1 [Example 11, 3-(N-(2-cyclohexyl-5-(methylsulfonyl)phenyl)sulfamoyl)-4-ethylbenzoic Acid]
< 100	O=C(O)c1ccc(C2CC2)c(S(=O)(=O)Nc2cc(C(F)(F)F)ccc2C2CCCNC2)c1 (stereo not shown) [Example 12, 4-cyclopropyl-3-(N-(2-(piperidin-3-yl)-5-(trifluoromethyl)phenyl)sulfamoyl)benzoic Acid]
< 100	CCc1ccc(C(=O)O)cc1S(=O)(=O)Nc1cc(C(F)(F)F)ccc1C1CCCCN1 (stereo not shown) [Example 8, 4-ethyl-3-(N-(2-(piperidin-2-yl)-5-(trifluoromethyl)phenyl)sulfamoyl)benzoic Acid]
< 100	CCc1ccc(C(=O)O)cc1S(=O)(=O)Nc1cc(C(F)(F)F)ccc1C1CCCCC1 [Example 9, 3-(N-(2-cyclohexyl-5-(trifluoromethyl)phenyl)sulfamoyl)-4-ethylbenzoic Acid]
< 100	N#Cc1ccc(C2CCCCN2)c(NS(=O)(=O)c2cc(C(=O)O)ccc2C2CC2)c1 (stereo not shown) [Example 19, 3-(N-(5-cyano-2-(piperidin-2-yl)phenyl)sulfamoyl)-4-cyclopropylbenzoic Acid]
< 100	N#Cc1ccc(C2CCCCC2)c(NS(=O)(=O)c2cc(C(=O)O)ccc2C2CC2)c1 [Example 18, 3-(N-(5-cyano-2-cyclohexylphenyl)sulfamoyl)-4-cyclopropylbenzoic Acid]
100 to 500	CCc1ccc(C(=O)O)cc1S(=O)(=O)Nc1cc(C(F)(F)F)ccc1C1CCCN1C (stereo not shown) [Example 6, 4-ethyl-3-(N-(2-(1-methylpyrrolidin-2-yl)-5-(trifluoromethyl)phenyl)sulfamoyl)benzoic]
< 100	CCc1ccc(C(=O)O)cc1S(=O)(=O)Nc1cc(S(C)(=O)=O)ccc1C1CCCNC1 (stereo not shown) [Example 14, 4-ethyl-3-(N-(5-(methylsulfonyl)-2-(piperidin-3-yl)phenyl)sulfamoyl)benzoic Acid]
< 100	CS(=O)(=O)c1cc(NS(=O)(=O)c2cc(C(=O)O)ccc2C2CC2)c(C2CCCCN2)cc1F (stereo not shown) [Example 25, 4-cyclopropyl-3-(N-(4-fluoro-5-(methylsulfonyl)-2-(piperidin-2-yl)phenyl)sulfamoyl)benzoic Acid Hydrochloride]
